Measured values from US20230017045A1, “PYRIDINE AND PYRIMIDINE CARBOXYLATE HERBICIDES AND METHODS OF USE THEREOF” (Dow AgroSciences LLC, priority 2017, published 2023).

The compounds below were run on test plant species (assay: Post-emergent herbicidal activity test (greenhouse, foliar spray, visual growth reduction)). Settings: post-emergence, 336 h, ECHCG: barnyardgrass (Echinochloa crus-galli), 140 g ai/ha, 14 days after application, read-out: Visual Growth Reduction (%) 14 Days After Application, ECHCG.
Assay type: in vivo
Method in brief: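 Plants grown in greenhouse (15 h photoperiod, 23-29° C day/22-28° C night) to first or second true leaf stage were sprayed overhead with compound in acetone/water/isopropanol/DMSO/crop oil/X-77 carrier at 187 L/ha. Injury was scored visually after 14 d on a 0-100% scale versus solvent-blank and untreated controls.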

SMILES	pest or weed control at 140 g/ha [%]
C#Cc1cc(C(F)(F)F)cc(Cl)c1-c1ccc(Cl)c(C(=O)OC)n1 [F239, methyl 3-chloro-6-(2-chloro-6-ethynyl-4-(trifluoromethyl)phenyl)picolinate]	0 to 29
COC(=O)c1nc(-c2cc(Cl)c(C(F)(F)F)cc2C)c(F)cc1Cl [F370, Methyl 3-chloro-6-(5-chloro-2-methyl-4-(trifluoromethyl)phenyl)-5-fluoropicolinate]	0 to 29
CCOc1cc(C(F)(F)F)ccc1-c1nc(C(=O)OC)c(Cl)cc1F [F311, Methyl 3-chloro-6-(2-ethoxy-4-(trifluoromethyl)phenyl)-5-fluoropicolinate]	0 to 29

Same assay, conditions: post-emergence, 336 h, IPOHE: ivy-leaf morning glory (Ipomoea hederacea), 140 g ai/ha, 14 days after application, read-out: Visual Growth Reduction (%) 14 Days After Application, IPOHE

SMILES	pest or weed control at 140 g/ha [%]
C#Cc1cc(C(F)(F)F)cc(Cl)c1-c1ccc(Cl)c(C(=O)OC)n1 [F239, methyl 3-chloro-6-(2-chloro-6-ethynyl-4-(trifluoromethyl)phenyl)picolinate]	75 to 84
COC(=O)c1nc(-c2cc(Cl)c(C(F)(F)F)cc2C)c(F)cc1Cl [F370, Methyl 3-chloro-6-(5-chloro-2-methyl-4-(trifluoromethyl)phenyl)-5-fluoropicolinate]	95 to 100
CCOc1cc(C(F)(F)F)ccc1-c1nc(C(=O)OC)c(Cl)cc1F [F311, Methyl 3-chloro-6-(2-ethoxy-4-(trifluoromethyl)phenyl)-5-fluoropicolinate]	95 to 100

Same assay, conditions: post-emergence, 336 h, KCHSC: kochia (Bassia scoparia), 140 g ai/ha, 14 days after application, read-out: Visual Growth Reduction (%) 14 Days After Application, KCHSC

SMILES	pest or weed control at 140 g/ha [%]
C#Cc1cc(C(F)(F)F)cc(Cl)c1-c1ccc(Cl)c(C(=O)OC)n1 [F239, methyl 3-chloro-6-(2-chloro-6-ethynyl-4-(trifluoromethyl)phenyl)picolinate]	0 to 29
COC(=O)c1nc(-c2cc(Cl)c(C(F)(F)F)cc2C)c(F)cc1Cl [F370, Methyl 3-chloro-6-(5-chloro-2-methyl-4-(trifluoromethyl)phenyl)-5-fluoropicolinate]	0 to 29
CCOc1cc(C(F)(F)F)ccc1-c1nc(C(=O)OC)c(Cl)cc1F [F311, Methyl 3-chloro-6-(2-ethoxy-4-(trifluoromethyl)phenyl)-5-fluoropicolinate]	0 to 29

Same assay, conditions: post-emergence, 336 h, ORYSA: rice (Oryza sativa), 140 g ai/ha, 14 days after application, read-out: Visual Growth Reduction (%) 14 Days After Application, ORYSA

SMILES	pest or weed control at 140 g/ha [%]
C#Cc1cc(C(F)(F)F)cc(Cl)c1-c1ccc(Cl)c(C(=O)OC)n1 [F239, methyl 3-chloro-6-(2-chloro-6-ethynyl-4-(trifluoromethyl)phenyl)picolinate]	0 to 29
COC(=O)c1nc(-c2cc(Cl)c(C(F)(F)F)cc2C)c(F)cc1Cl [F370, Methyl 3-chloro-6-(5-chloro-2-methyl-4-(trifluoromethyl)phenyl)-5-fluoropicolinate]	0 to 29
CCOc1cc(C(F)(F)F)ccc1-c1nc(C(=O)OC)c(Cl)cc1F [F311, Methyl 3-chloro-6-(2-ethoxy-4-(trifluoromethyl)phenyl)-5-fluoropicolinate]	0 to 29

Same assay, conditions: post-emergence, 336 h, SETFA: giant foxtail (Setaria faberi), 140 g ai/ha, 14 days after application, read-out: Visual Growth Reduction (%) 14 Days After Application, SETFA

SMILES	pest or weed control at 140 g/ha [%]
C#Cc1cc(C(F)(F)F)cc(Cl)c1-c1ccc(Cl)c(C(=O)OC)n1 [F239, methyl 3-chloro-6-(2-chloro-6-ethynyl-4-(trifluoromethyl)phenyl)picolinate]	0 to 29
COC(=O)c1nc(-c2cc(Cl)c(C(F)(F)F)cc2C)c(F)cc1Cl [F370, Methyl 3-chloro-6-(5-chloro-2-methyl-4-(trifluoromethyl)phenyl)-5-fluoropicolinate]	60 to 74
CCOc1cc(C(F)(F)F)ccc1-c1nc(C(=O)OC)c(Cl)cc1F [F311, Methyl 3-chloro-6-(2-ethoxy-4-(trifluoromethyl)phenyl)-5-fluoropicolinate]	0 to 29

Same assay, conditions: post-emergence, 336 h, SORVU: grain sorghum (Sorghum vulgare), 140 g ai/ha, 14 days after application, read-out: Visual Growth Reduction (%) 14 Days After Application, SORVU

SMILES	pest or weed control at 140 g/ha [%]
C#Cc1cc(C(F)(F)F)cc(Cl)c1-c1ccc(Cl)c(C(=O)OC)n1 [F239, methyl 3-chloro-6-(2-chloro-6-ethynyl-4-(trifluoromethyl)phenyl)picolinate]	60 to 74
COC(=O)c1nc(-c2cc(Cl)c(C(F)(F)F)cc2C)c(F)cc1Cl [F370, Methyl 3-chloro-6-(5-chloro-2-methyl-4-(trifluoromethyl)phenyl)-5-fluoropicolinate]	85 to 94
CCOc1cc(C(F)(F)F)ccc1-c1nc(C(=O)OC)c(Cl)cc1F [F311, Methyl 3-chloro-6-(2-ethoxy-4-(trifluoromethyl)phenyl)-5-fluoropicolinate]	75 to 84

Same assay, conditions: post-emergence, 336 h, STEME: common chickweed (Stellaria media), 140 g ai/ha, 14 days after application, read-out: Visual Growth Reduction (%) 14 Days After Application, STEME

SMILES	pest or weed control at 140 g/ha [%]
C#Cc1cc(C(F)(F)F)cc(Cl)c1-c1ccc(Cl)c(C(=O)OC)n1 [F239, methyl 3-chloro-6-(2-chloro-6-ethynyl-4-(trifluoromethyl)phenyl)picolinate]	0 to 29
COC(=O)c1nc(-c2cc(Cl)c(C(F)(F)F)cc2C)c(F)cc1Cl [F370, Methyl 3-chloro-6-(5-chloro-2-methyl-4-(trifluoromethyl)phenyl)-5-fluoropicolinate]	0 to 29
CCOc1cc(C(F)(F)F)ccc1-c1nc(C(=O)OC)c(Cl)cc1F [F311, Methyl 3-chloro-6-(2-ethoxy-4-(trifluoromethyl)phenyl)-5-fluoropicolinate]	0 to 29

Same assay, conditions: post-emergence, 336 h, TRZAS: wheat, spring (Triticum aestivum), 140 g ai/ha, 14 days after application, read-out: Visual Growth Reduction (%) 14 Days After Application, TRZAS

SMILES	pest or weed control at 140 g/ha [%]
C#Cc1cc(C(F)(F)F)cc(Cl)c1-c1ccc(Cl)c(C(=O)OC)n1 [F239, methyl 3-chloro-6-(2-chloro-6-ethynyl-4-(trifluoromethyl)phenyl)picolinate]	0 to 29
COC(=O)c1nc(-c2cc(Cl)c(C(F)(F)F)cc2C)c(F)cc1Cl [F370, Methyl 3-chloro-6-(5-chloro-2-methyl-4-(trifluoromethyl)phenyl)-5-fluoropicolinate]	0 to 29
CCOc1cc(C(F)(F)F)ccc1-c1nc(C(=O)OC)c(Cl)cc1F [F311, Methyl 3-chloro-6-(2-ethoxy-4-(trifluoromethyl)phenyl)-5-fluoropicolinate]	0 to 29

Same assay, conditions: post-emergence, 336 h, blackgrass (Alopecurus myosuroides), 14 Days After Application, 140 g ai/ha, read-out: Visual Growth Reduction (%) ALOMY

SMILES	pest or weed control at 140 g/ha [%]
C#Cc1cc(C(F)(F)F)cc(Cl)c1-c1ccc(Cl)c(C(=O)OC)n1 [F239, methyl 3-chloro-6-(2-chloro-6-ethynyl-4-(trifluoromethyl)phenyl)picolinate]	0 to 29
COC(=O)c1nc(-c2cc(Cl)c(C(F)(F)F)cc2C)c(F)cc1Cl [F370, Methyl 3-chloro-6-(5-chloro-2-methyl-4-(trifluoromethyl)phenyl)-5-fluoropicolinate]	0 to 29
CCOc1cc(C(F)(F)F)ccc1-c1nc(C(=O)OC)c(Cl)cc1F [F311, Methyl 3-chloro-6-(2-ethoxy-4-(trifluoromethyl)phenyl)-5-fluoropicolinate]	0 to 29

Same assay, conditions: post-emergence, 336 h, canada thistle (Cirsium arvense), 14 Days After Application, 140 g ai/ha, read-out: Visual Growth Reduction (%) CIRAR

SMILES	pest or weed control at 140 g/ha [%]
C#Cc1cc(C(F)(F)F)cc(Cl)c1-c1ccc(Cl)c(C(=O)OC)n1 [F239, methyl 3-chloro-6-(2-chloro-6-ethynyl-4-(trifluoromethyl)phenyl)picolinate]	0 to 29
COC(=O)c1nc(-c2cc(Cl)c(C(F)(F)F)cc2C)c(F)cc1Cl [F370, Methyl 3-chloro-6-(5-chloro-2-methyl-4-(trifluoromethyl)phenyl)-5-fluoropicolinate]	75 to 84
CCOc1cc(C(F)(F)F)ccc1-c1nc(C(=O)OC)c(Cl)cc1F [F311, Methyl 3-chloro-6-(2-ethoxy-4-(trifluoromethyl)phenyl)-5-fluoropicolinate]	0 to 29

Same assay, conditions: post-emergence, 336 h, crabgrass (Digitaria sanguinalis), 14 Days After Application, 140 g ai/ha, read-out: Visual Growth Reduction (%) DIGSA

SMILES	pest or weed control at 140 g/ha [%]
C#Cc1cc(C(F)(F)F)cc(Cl)c1-c1ccc(Cl)c(C(=O)OC)n1 [F239, methyl 3-chloro-6-(2-chloro-6-ethynyl-4-(trifluoromethyl)phenyl)picolinate]	0 to 29
COC(=O)c1nc(-c2cc(Cl)c(C(F)(F)F)cc2C)c(F)cc1Cl [F370, Methyl 3-chloro-6-(5-chloro-2-methyl-4-(trifluoromethyl)phenyl)-5-fluoropicolinate]	45 to 59
CCOc1cc(C(F)(F)F)ccc1-c1nc(C(=O)OC)c(Cl)cc1F [F311, Methyl 3-chloro-6-(2-ethoxy-4-(trifluoromethyl)phenyl)-5-fluoropicolinate]	0 to 29

Same assay, conditions: post-emergence, 336 h, lambsquarters (Chenopodium album), 14 Days After Application, 140 g ai/ha, read-out: Visual Growth Reduction (%) CHEAL

SMILES	pest or weed control at 140 g/ha [%]
C#Cc1cc(C(F)(F)F)cc(Cl)c1-c1ccc(Cl)c(C(=O)OC)n1 [F239, methyl 3-chloro-6-(2-chloro-6-ethynyl-4-(trifluoromethyl)phenyl)picolinate]	30 to 44
COC(=O)c1nc(-c2cc(Cl)c(C(F)(F)F)cc2C)c(F)cc1Cl [F370, Methyl 3-chloro-6-(5-chloro-2-methyl-4-(trifluoromethyl)phenyl)-5-fluoropicolinate]	45 to 59
CCOc1cc(C(F)(F)F)ccc1-c1nc(C(=O)OC)c(Cl)cc1F [F311, Methyl 3-chloro-6-(2-ethoxy-4-(trifluoromethyl)phenyl)-5-fluoropicolinate]	30 to 44

Same assay, conditions: post-emergence, 336 h, redroot pigweed (Amaranthus retroflexus), 14 Days After Application, 140 g ai/ha, read-out: Visual Growth Reduction (%) AMARE

SMILES	pest or weed control at 140 g/ha [%]
C#Cc1cc(C(F)(F)F)cc(Cl)c1-c1ccc(Cl)c(C(=O)OC)n1 [F239, methyl 3-chloro-6-(2-chloro-6-ethynyl-4-(trifluoromethyl)phenyl)picolinate]	0 to 29
COC(=O)c1nc(-c2cc(Cl)c(C(F)(F)F)cc2C)c(F)cc1Cl [F370, Methyl 3-chloro-6-(5-chloro-2-methyl-4-(trifluoromethyl)phenyl)-5-fluoropicolinate]	85 to 94
CCOc1cc(C(F)(F)F)ccc1-c1nc(C(=O)OC)c(Cl)cc1F [F311, Methyl 3-chloro-6-(2-ethoxy-4-(trifluoromethyl)phenyl)-5-fluoropicolinate]	0 to 29

Same assay, conditions: post-emergence, 336 h, wild oat (Avena fatua), 14 Days After Application, 140 g ai/ha, read-out: Visual Growth Reduction (%) AVEFA

SMILES	pest or weed control at 140 g/ha [%]
C#Cc1cc(C(F)(F)F)cc(Cl)c1-c1ccc(Cl)c(C(=O)OC)n1 [F239, methyl 3-chloro-6-(2-chloro-6-ethynyl-4-(trifluoromethyl)phenyl)picolinate]	0 to 29
COC(=O)c1nc(-c2cc(Cl)c(C(F)(F)F)cc2C)c(F)cc1Cl [F370, Methyl 3-chloro-6-(5-chloro-2-methyl-4-(trifluoromethyl)phenyl)-5-fluoropicolinate]	0 to 29
CCOc1cc(C(F)(F)F)ccc1-c1nc(C(=O)OC)c(Cl)cc1F [F311, Methyl 3-chloro-6-(2-ethoxy-4-(trifluoromethyl)phenyl)-5-fluoropicolinate]	0 to 29

Same assay, conditions: post-emergence, 336 h, yellow nutsedge (Cyperus esculentus), 14 Days After Application, 140 g ai/ha, read-out: Visual Growth Reduction (%) CYPES

SMILES	pest or weed control at 140 g/ha [%]
C#Cc1cc(C(F)(F)F)cc(Cl)c1-c1ccc(Cl)c(C(=O)OC)n1 [F239, methyl 3-chloro-6-(2-chloro-6-ethynyl-4-(trifluoromethyl)phenyl)picolinate]	0 to 29
COC(=O)c1nc(-c2cc(Cl)c(C(F)(F)F)cc2C)c(F)cc1Cl [F370, Methyl 3-chloro-6-(5-chloro-2-methyl-4-(trifluoromethyl)phenyl)-5-fluoropicolinate]	0 to 29
CCOc1cc(C(F)(F)F)ccc1-c1nc(C(=O)OC)c(Cl)cc1F [F311, Methyl 3-chloro-6-(2-ethoxy-4-(trifluoromethyl)phenyl)-5-fluoropicolinate]	0 to 29
